Data: US9708359B2, “Pyrrolopyrimidine nucleosides and analogs thereof” (Chimerix, Inc., priority 2015, dated 2017)
Entries after “also recorded” stand apart in the source; their conditions may differ. Like-named read-outs stand apart in the source and are kept apart here.

What was measured:
AdV = test: microbe, parasite or virus in culture; assay type: cell-based; details: unidentified adenovirus, A549 cells
BKV = test: qPCR assay for BKV; assay type: cell-based, BK virus; details: Betapolyomavirus hominis, HFF cells
Description: qPCR Assays for BKV and JCV:
Primary assays for BK virus were performed in 96-well plates containing monolayers of HFF cells. Compound dilutions were prepared in plates containing cells which were subsequently infected at with the Gardner strain of BK virus. After a 7 d incubation, total DNA was prepared with a purification kit and genome copy number was quantified by real time PCR. Compounds that were positive in this assay were confirmed in a similar assay in 96-well plates with the compounds added 1 h […] to identify compounds that inhibit early stages of replication including adsorption and penetration. Genome copy number was determined by methods described above.
Primary assays for BK virus were performed in 96-well plates containing monolayers of HFF cells. Compound dilutions were prepared in plates containing cells which were subsequently infected at with the Gardner strain of BK virus. After a 7 d incubation, total DNA was prepared with a Wizard SV 96 well purification kit and genome copy number was quantified by real time PCR using the primers 5′-[…]-3′ (SEQ ID No. 8) , 5′-[…]-3′ (SEQ ID No. 9) and probe 5-6-FAM […]-3′ (SEQ ID No. 10) . Plasmid pMP526 served as the DNA standard for quantitation purposes. […] Genome copy number was determined by methods described above.

HHV-6B = test: organism not typed; assay type: cell-based; details: MOLT-3 cells
HHV-8 = test: cells; assay type: cell-based, human herpes virus 8; details: Homo sapiens, BCBL1; HHV-8, BCBL-1 cells
DENV-2 = test: microbe, parasite or virus in culture; assay type: cell-based; details: Dengue virus, DENV2, Vero 76; DENV-2, Vero76 cells
POV-3 = test: microbe, parasite or virus in culture; assay type: cell-based, Poliovirus; details: Enterovirus C, Vero 76
RSV = test: microbe, parasite or virus in culture; assay type: cell-based; details: human respiratory syncytial virus, MA104, MA-104 cells
[1] = Parallel cytotoxicity assay in MEF cells; assay type: cell-based; details: mouse, parallel to MCMV assay
Description: Every antiviral assay included a parallel cytotoxicity assay with the same cells used for each virus, the same cell number, the same drug concentrations, and the same incubation times to provide the same drug exposure. To ensure that the cytotoxicity of all compounds could be compared directly, a standard neutral red uptake cytotoxicity assay for all compounds in confluent HFF cells with a 7 d incubation period was performed.

[2] = test system: murine norovirus (MNV) CR3; test: Study No. 1: efficacy against Murine Norovirus infection in mice; assay type: in vivo, BALB/c mice; details: for murine norovirus titer in tissue and feces: 30, 100, 300 mg/kg/day BID oral gavage from day −2, 10^6 PFU, day 3 post-infection
Description: Study No. 1 evaluated the efficacy of twice-daily dosing of Compound 1 over a range of 30 mg/kg to 300 mg/kg, initiated prior to infection of mice with 10^6 plaque-forming units (PFU) of murine norovirus (MNV) CR3. A control group of mice treated with vehicle was also included. All doses were started 2 days (39 hours) prior to infection.
Compound was delivered twice daily at indicated doses via oral gavage. A control group of mice treated with vehicle only was also included. Mice were infected with murine norovirus by pipetting virus into mouth 2 days after the first dose. Mice were housed on metal grates and combined fecal output was collected every 24 hours. Tissues (distal ileum and cecum) and individual fecal pellets were harvested on day 3 post inoculation. All samples were titered by plaque assay.
(§1) For both studies, compound was delivered via oral gavage at the indicated doses and times prior to infection. Mice were infected with murine norovirus CR3 by pipetting virus into mouth 3 hours after the first day 0 dose of Compound 1 was given. Following infection, compound was administered twice daily through day 3 post-infection.
The mice used were ˜20 gram, 8-12 week old female BALB/c mice in groups of 5. Mice were housed on metal grates and combined fecal output was collected every 24 hours, starting at day −1. Tissues (˜1 cm of distal ileum and cecum) and individual fecal pellets were harvested on day 3 post-infection and weighed. All samples were titered by plaque assay (qRT-PCR as back-up when titers are too low); titers were normalized to gram of tissue or feces. On day 3, duplicate samples of tissue (˜1 cm of distal ileum and cecum) were collected, rinsed in PBS, and snap frozen; serum and a duplicate feces sample were also collected on day 3 and snap frozen; this set of sample was submitted for MS analysis to assess drug bioavailability.

[3] = test system: murine norovirus (MNV) CR3; test: Study No. 2: efficacy against Murine Norovirus infection in mice; assay type: in vivo, BALB/c mice; details: twice daily 300 mg/kg starting 2 days prior to infection, 10^4 PFU
Description: Study No. 2 evaluated the efficacy of twice-daily dosing of Compound 1 at 150 mg/kg or 300 mg/kg, initiated prior to infection of mice with 10^4 pfu of MNV CR3. A control group of mice treated with vehicle was also included. The 150 mg/kg dose was started either 2 days (39 hours) prior to inoculation, 1 day (15 hours) prior to inoculation, or on the day of (3 hours prior to) inoculation; the 300 mg/kg dose was started 2 days (39 hours) prior to infection.
This study tested the ability of Compound 1 to protect mice from or reduce murine norovirus infection. Compound was delivered twice daily at indicated doses via oral gavage starting 2 days prior to inoculation, 1 day prior to inoculation or at time of inoculation. A control group of mice treated with vehicle only was also included. Mice were infected with 10^4 PFU of murine norovirus by pipetting virus into mouth 3 hours after the Day 0 dose. All samples were titered by plaque assay.
as §1
The mice used were ˜20 gram, 8-12 week old female BALB/c mice in groups of 5. […]

human norovirus = test: Efficacy of Compound 1 Against Human Norovirus (viral titer); assay type: cell-based; details: cells pretreated with 25 μM compound for two hours; duplicate (FIGS. 4-6)
Description: The efficacy of compound 1 for inhibiting norovirus was compared to DMSO (as a control), compound 2, and 2′-C-methylcytidine triphosphate (2′CmeC TP). Cells were pretreated with 25 μM of experimental compound for two hours. Virus inoculum was added for two hours, and unbound virus washed off and fresh media and fresh experimental compound was added.

in vitro = details: dog
[4] = Cytotoxicity (CC50) in RAW cells; details: mouse
mouse norovirus = test: Mouse Norovirus (MNV) assay in RAW cells

For `Cc1nc(N)c2c(C(N)=O)cn([C@@H]3O[C@H](CO)[C@@H](O)[C@H]3O)c2n1` [Compound 1, 4-amino-7-((2R,3R,4S,5R)-3,4-dihydroxy-5-(hydroxymethyl)tetrahydrofuran-2-yl)-2-methyl-7H-pyrrolo[2,3-d]pyrimidine-5-carboxamide], the EC50 (AdV) was greater than 100 µM, the EC50 (BKV) was greater than 60 µM and the EC50 (HHV-6B) was 39.7 µM. The EC50 (HHV-8) was greater than 12 µM, the EC50 (DENV-2) was greater than 100 µM and the EC50 (POV-3) was greater than 100 µM. For the same compound, the EC50 (RSV) was 31 µM, the CC50 [1] was greater than 100 µM and the “murine norovirus titer in tissue and feces” value (from here on “murine norovirus titer”) [2] was “effective in reducing the titer of murine norovirus in both tissue and feces”. For the same compound, the “murine norovirus titer” value ([2]; listed as compound 1) was “reduce the viral load in mice infected with murine norovirus in a dose-dependent manner; also recorded: showed a reduction in PFU/gram with increasing dose”, the “virus titer in tissue and feces compared with vehicle” value ([2]; twice-daily 300 mg/kg) was “significant reduction in virus titer” and the “murine norovirus titer” value [3] was “significantly reduces murine norovirus titer both in tissue and feces”. The viral titer (human norovirus) was “increased less than one order of magnitude”, the CC50 (in vitro) was greater than 100 µM and the CC50 [4] was 114 µM. The EC50 (mouse norovirus; Norovirus, in Mus musculus, read-out: EC50 value against mouse norovirus, in vitro, unit inferred) was roughly 2.1 µM, the EC50 (mouse norovirus; Norovirus, in Mus musculus, read-out: MNV Mean EC50, RAW cells) was 2 µM and the EC50 (mouse norovirus; murine norovirus, Table 7) was 1.7 to 3.6 µM.
